We go through four molecules from US20160375031A1, “ALPHA-OXOACYL AMINO-CAPROLACTAM DERIVATIVE” (Seikagaku Corporation, priority 2013, published 2016).

Series [1] addresses T1, Cathepsin K (Oryctolagus cuniculus, UniProt P43236).
T1 sequence (P43236 115-329): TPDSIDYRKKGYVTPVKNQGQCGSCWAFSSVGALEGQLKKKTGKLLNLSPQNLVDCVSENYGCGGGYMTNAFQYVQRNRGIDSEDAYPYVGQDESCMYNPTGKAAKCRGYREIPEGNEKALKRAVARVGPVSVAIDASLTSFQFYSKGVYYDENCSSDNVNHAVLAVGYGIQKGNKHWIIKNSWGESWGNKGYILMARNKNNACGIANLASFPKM
Experimental: (§1) Specifically, the decomposition of 20 μM Z-Gly-Pro-Arg-MCA by cathepsin K was measured in 100 mM potassium sodium phosphate, 1 mM EDTA, 8 mM Cysteine, pH 6.0. The reaction was performed at 37° C. for 30 minutes and then quenched by the addition of 2×10^−5 M of calpeptin. After the reaction was quenched, the intensity of fluorescence was measured at an excitation wavelength of 355 nm and a measurement wavelength of 460 nm.

Series [2] concerns male mice fed with low-calcium diet. The experiment in a line: Measurement of bone resorption inhibitory activity (decrease in serum calcium in low-calcium diet mice). Format: in vivo. As to conditions: low-calcium diet 7 days, 100 mg/kg oral, 4 hours after administration, vs control group. As to the method: The measurement was performed by the same method as described in JP 2000-204071 A (Patent Literature 1). Specifically, male mice (23 to 25 g weight, 8 mice per group) were fed with low-calcium diet (0.1% calcium diet) for 7 days. […] The rate (%) of decrease in serum calcium was determined by comparison with the control group.
It should be noted that the data of the rate (%) of decrease in serum calcium as to comparative compounds 1 to 15 are the values shown in JP 2000-204071 A (Patent Literature 1).

The target in series [3] is T2, CYP3A4 (Homo sapiens, UniProt P08684). The experiment in a line: biochemical.
Experimental: (§2) A reaction mixture was prepared by mixing the compound of the present invention with midazolam as a typical substrate for CYP3A4 (see Food and Drug Administration (FDA) Guidance for Industry Drug Interaction Studies—Study Design, Data Analysis, Implications for Dosing, and Labeling Recommendations. FDA web site [online], www.fda.gov/downloads/drugs/guidancecomplianceregulatoryinformation/guidances/ucm292362.pdf), coenzyme NADPH-generating system, human hepatic microsomes, and a phosphate buffer. The reaction mixture was incubated at 37° C. for 10 minutes.
(§3) The coenzyme NADPH-generating system solution was prepared by mixing the materials shown in Table 1: the 13 mmol/L β-NADP^+ solution, the 33 mmol/L G-6-P solution, the solution of 10 U/mL G6PDH (Y) (manufactured by Oriental Yeast Co., Ltd.), and the 33 mmol/L MgCl2 solution in a ratio of 1:1:0.4:1 (v:v:v:v).
(§4) After the incubation, the reaction was quenched by the addition of an acetonitrile solution to the reaction mixture. The amount of 1′-hydroxymidazolam produced (the metabolite produced from midazolam by CYP3A4) was measured in the quenched sample with a high-performance liquid chromatography tandem mass spectrometer (LC-MS/MS). Each IC50 value for DI (direct inhibition) was determined from the amount of the produced 1′-hydroxymidazolam and the final concentration of the compound of the present invention or the comparative compound in the reaction mixture.
(§5) MBI (mechanism based inhibition) was evaluated as follows. After the reaction mixture not containing midazolam (but containing the compound of the present invention or the comparative compound, the coenzyme NADPH-generating system, the human hepatic microsomes, and the phosphate buffer) was pre-incubated at 37° C. for 30 minutes, midazolam was added to the reaction mixture. The reaction mixture was then incubated at 37° C. for 10 minutes. Subsequently, the reaction was quenched by the addition of an acetonitrile solution to the reaction mixture. The amount of 1′-hydroxymidazolam produced was measured in the quenched sample with an LC-MS/MS. As in the case of DI, each IC50 value for MBI was determined from the amount of the produced 1′-hydroxymidazolam and the final concentration of the compound of the present invention or the comparative compound in the reaction mixture.
In series [4] the target is T1, Cathepsin K. Nature of the series: Measurement of cathepsin K inhibitory activity (fluorescent substrate Z-Gly-Pro-Arg-MCA). As to conditions: for CYP/CatK: ratio of IC50 for CYP3A4 inhibitory activity (MBI) to IC50 for cathepsin K inhibitory activity.
Experimental: as §1
Series [5] has as its target T2, CYP3A4.
Experimental: as §2, §3, §4, §5
The test system of series [6] is male mice fed with low-calcium diet. As to conditions: values shown in JP 2000-204071 A (Patent Literature 1); cited from earlier work.
The mark [7] stands for this setting: read-out: CYP3A4 Inhibitory IC50 DI, DI (direct inhibition), human hepatic microsomes, midazolam, 37° C. 10 minutes.
The mark [8] stands for this setting: read-out: CYP3A4 Inhibitory IC50 MBI, MBI (mechanism based inhibition), 30 minutes pre-incubation with NADPH-generating system before midazolam.
Setting [9] is: read-out: CatK Inhibitory IC50, 20 μM Z-Gly-Pro-Arg-MCA, pH 6.0, 37° C., 30 minutes.

Where “and” joins values, the source holds several entries; their conditions need not be identical. Equal entries are not always repeated. Where two headings read alike, the source gives them in different places.

T2 sequence (P08684 whole entry): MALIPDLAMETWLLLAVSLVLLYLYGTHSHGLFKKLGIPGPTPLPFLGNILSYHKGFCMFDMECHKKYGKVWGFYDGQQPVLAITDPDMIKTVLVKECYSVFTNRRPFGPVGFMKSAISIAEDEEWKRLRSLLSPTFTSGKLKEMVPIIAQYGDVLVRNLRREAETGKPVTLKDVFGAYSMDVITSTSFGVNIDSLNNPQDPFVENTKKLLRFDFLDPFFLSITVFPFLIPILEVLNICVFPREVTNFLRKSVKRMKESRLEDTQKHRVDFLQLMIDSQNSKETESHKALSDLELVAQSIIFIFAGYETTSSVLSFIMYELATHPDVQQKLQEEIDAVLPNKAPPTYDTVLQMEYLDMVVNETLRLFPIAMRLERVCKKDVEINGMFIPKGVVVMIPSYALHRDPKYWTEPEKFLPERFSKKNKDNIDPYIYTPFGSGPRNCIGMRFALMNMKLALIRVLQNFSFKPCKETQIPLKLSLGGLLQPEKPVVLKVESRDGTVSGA

The molecule `CC(C)[C@H](NC(=O)C1(NC(=O)OC2CCOCC2)CCCCC1)C(=O)C(=O)N[C@H]1CCCCNC1=O` [Compound 1, [1-[[[(1S)-3-[[(3S)-hexahydro-2-oxo-1H-azepin-3-yl]amino]-1-(1-methylethyl)-2,3-dioxopropyl]amino]carbonyl]cyclohexyl]carbamic acid tetrahydro-2H-pyran-4-yl ester] yielded a CYP/CatK on Cathepsin K [1] of 141739. In series [2], the “Rate of Decrease in Serum Ca” value is 6.2%. Moreover, the concentration for half-maximal inhibition (IC50) against CYP3A4 [3] is > 100 µM and 80 µM; at Cathepsin K [4], 0.00056 µM.

For `COC(=O)N1CCC(OC(=O)NC2(C(=O)N[C@H](C(=O)C(=O)N[C@H]3CCCCNC3=O)C(C)C)CCCCC2)CC1` [Compound 2, [1-[[[(1S)-3-[[(3S)-hexahydro-2-oxo-1H-azepin-3-yl]amino]-1-(1-methylethyl)-2,3-dioxopropyl]amino]carbonyl]cyclohexyl]carbamic acid 1-(methoxycarbonyl)-4-piperidinyl ester], the CYP/CatK on Cathepsin K [1] came to 44231. Also, the “Rate of Decrease in Serum Ca” value in series [2] came to 5.6%. For the same molecule, the IC50 was 55.6 µM and 23 µM at CYP3A4 [3]; 0.00052 µM on Cathepsin K [4].

As for “[1-[[[(1S)-3-[[(3S)-hexahydro-2-oxo-1H-azepin-3-yl]amino]-1-(1-methylethyl)-2,3-dioxopropyl]amino]carbonyl]cyclohexyl]carbamic acid 1-(methoxycarbonyl)-4-piperidinyl ester [Compound 2]”, the IC50 on CYP3A4 [5] (setting [7]) came out at 9.31 µM; at CYP3A4 [5] (setting [8]) it was 1.53 µM; on Cathepsin K [4] (setting [9]), 0.013 µM. Further, the CYP/CatK at Cathepsin K [4] is on record as 122. Besides, the “Rate of Decrease in Serum Ca” value in series [6] was 4.71%.

For the molecule “[1-[[[(1S)-3-[[(3S)-hexahydro-2-oxo-1H-azepin-3-yl]amino]-1-(1-methylethyl)-2,3-dioxopropyl]amino]carbonyl]cyclohexyl]carbamic acid tetrahydro-2H-pyran-4-yl ester [Compound 1]”, the half-maximal inhibitory concentration (IC50) on CYP3A4 [5] (setting [7]) amounted to 11.7 µM; on CYP3A4 [5] (setting [8]), 3.36 µM; on Cathepsin K [4] (setting [9]), 0.016 µM. In addition, the CYP/CatK on Cathepsin K [4] was found to be 207. The “Rate of Decrease in Serum Ca” value in series [6] is recorded as 5.39%.

In general, IC50 refers to the concentration needed to halve the response being measured.
